Consider 2 compounds from patent publication US20100168149A1, “Camptothecin Analogue Compounds, a Process for Their Preparation and Pharmaceutical Compositions Containing Them” (priority 2005, published 2010).

Assay [1] has as its system human colon carcinoma HT29. Nature of the assay: In vitro cytotoxicity, Microculture Tetrazolium Assay, HT29. In kind it is cell-based. The following applies: HT-29, HT29, 96 hours exposure, read-out: IC50 (concentration of cytotoxic agent which inhibits proliferation of the treated cells by 50%). As to the method: (§1) The murine leukaemia L1210 and the human colon carcinomas HCT116 and HT29 were used in vitro. The cells are cultured in RPMI 1640 complete culture medium containing 10% foetal calf serum, 2 mM glutamine, 50 units/ml of penicillin, 50 μg/ml of streptomycin and 10 mM Hepes, pH=7.4. The cells are distributed on microplates and are exposed to the cytotoxic compounds for 4 doubling times, that is to say 48 hours (L1210) or 96 hours (HCT116 and HT29). The number of viable cells is then quantified by a […] assay, the Microculture Tetrazolium Assay (J. Carmichael et al., Cancer Res.; 47, 936-942, (1987)). The results are expressed in terms of the IC50 (the concentration of cytotoxic agent which inhibits proliferation of the treated cells by 50%).

Assay [2] concerns murine leukaemia L1210. The assay can be described thus: In vitro cytotoxicity, Microculture Tetrazolium Assay, L1210. The assay is classed as cell-based. To be noted: Mus musculus; L1210, 48 hours exposure; read-out: IC50 (concentration of cytotoxic agent which inhibits proliferation of the treated cells by 50%). The protocol:
as §1

The structures appear in SMILES notation.

Turning to `CCC1(O)C(=O)Cc2c1cc1n(c2=O)Cc2c-1nc1cc3c(cc1c2-c1ccc(C)cc1)OCO3` (stereo not drawn) [Example 1, 7-Ethyl-7-hydroxy-2,3-methylenedioxy-13-(4-methylphenyl)-9,12-dihydro-7H-cyclopenta[6,7]indolizino[1,2-b]quinoline-8,10-dione], in assay [1], the IC50 was 3.2 nM.
Consider `CCC1(O)C(=O)Cc2c1cc1n(c2=O)Cc2c-1nc1cc3c(cc1c2-c1ccc(N(C)C)cc1)OCO3` (stereo not drawn) [Example 6, 7-Ethyl-2,3-methylenedioxy-7-hydroxy-13-[4-(dimethylamino)phenyl]-9,12-dihydro-7H-cyclopenta[6,7]indolizino[1,2-b]quinoline-8,10-dione], for which the IC50 was determined as 4.7 nM in assay [1] and 10.4 nM in assay [2].
